Measured values taken from patent publication US7795314B2, “Protective role of semapimod in necrotizing enterocolitis” (Cytokine PharmaSciences, Inc., priority 2005, dated 2010).

Experiments:
[1] = test system: formula-feeding/hypoxia-mediated intestinal injury (experimental NEC); assay: Animal model of NEC: incidence of NEC and morphologic evaluation of terminal ileum; type: in vivo, Sprague-Dawley rats (newborn); conditions: FFH newborn rats
Method: (§1) All the experiments were carried out according to an animal protocol approved by the Animal Research and Care Committee (ARCC) of the Children's Hospital of Pittsburgh. Pregnant time-dated Sprague-Dawley rats (Charles River Labs, Wilmington, Mass.) were induced at term using a subcutaneous injection (1 to 2 U per animal) of Pitocin® (Monarch Pharmaceuticals, Bristol, Tenn.). Immediately after birth, the neonates were weighed and randomized into one of the different treatment groups. Group 1 consisted of neonatal rats left with their mother, and thus were breast-fed. […]
Newborn rats separated from their mothers were fed a conventional formula and exposed to hypoxia after administration of the drug semapimod (0.1-1 mg/kg, i.p.) as described in Methods. […] Incidence of NEC was calculated as the percentage of animals displaying pathology scores higher than 0 as assessed by histology. Results in graph bars are the mean±S.E.M. (n=15-45 animals for each group, *P<0.05 vs. FFH without semapimod, analyzed by one-way ANOVA followed by Fisher's LSD Test).

HMGB1 = assay: Western blotting of ileal mucosal scrapings, NEC model; type: in vivo, rat; conditions: FFH+semapimod vs FFH, day 4, 30 kDa band, FIG. 3a
Method: as §1
(§2) Newborn rats were sacrificed as indicated and segments of the terminal ileum were isolated. […] Protein concentration in the supernatant was determined using the bicinchoninic acid (BCA) Protein Assay kit form Sigma (St. Louis, Mo.) with bovine serum albumin as standard. […]

RAGE = assay: as above; type: in vivo, rat; conditions: FFH+semapimod vs FFH, day 4, 45 and 25 kDa bands, FIG. 3c
Method: as §1, §2

Bad = assay: as above; type: in vivo, rat; conditions: FFH pups, 0.75 mg/kg IP daily, day 4, FIG. 4a
Method: as §1, §2

Bax = assay: as above; type: in vivo, rat; conditions: FFH pups, 0.75 mg/kg IP daily, day 4, FIG. 4b
Method: as §1, §2

COX-2 = assay: as above; type: in vivo, rat; conditions: FFH animals, 0.75 mg/kg IP daily, day 4, FIG. 5b
Method: as §1, §2

iNOS = assay: as above; type: in vivo, rat; conditions: FFH animals, 0.75 mg/kg IP daily, day 4, FIG. 5a
Method: as §1, §2

p38 MAP kinase = assay: Activation (phosphorylation) of p38 MAP kinase in IEC-6 cells, Western blotting pp38/p38; type: cell-based, rat
Method: The rat intestinal crypt cell line IEC-6 was purchased from the American Type Culture Collection (ATCC, Manassas, Va.). Cells were grown in tissue culture medium consisting of Dulbeco's modified Eagle's medium with 4.5 gm/L glucose (Bio-Whittaker, Walkersville, Md.) supplemented with 5% fetal bovine serum (Bio-Whittaker), 0.02 mM glutamine (GIBCO; Grand Island, N.Y.), 0.1 U/ml insulin, 100 U/ml penicillin, and 100 μg/ml streptomycin (GIBCO) at 37° C. and 10% CO2. Cells were pretreated with semapimod (0.1-10 μM solutions prepared in 5% dextrose) followed by short exposure to LPS (5 μg/ml), peroxynitrite (ONOO^−, 50 μM) or cytomix (a combination of tumor necrosis factor (TNFα, 10 ng/ml), interleukin-1β (IL-β, 1 ng/ml), and interferon-gamma (IFNγ, 1000 U/ml) for 10 min. Preparation of the ONOO^− solution and cell treatment was as previously reported (36). The lysates were collected for Western blotting analysis as follows: proteins were extracted for 10 min at 4° C. witih lysis buffer (20 mM Tris pH 8.0, 150 mM NaCl, 1% NP-40, 0.5% sodium deoxycholate, 0.1% sodium dodecylsulfate) supplemented with protease and phosphatase inhibitors: 1 mM PMSF, 1 mM benzamidine, 50 μg/ml aprotinin, 0.5 mM Na3VO4, 20 mM NaF, and 0.5 mM phenylarsine oxide. Aliquots containing 50 μg total protein were resolved by SDS-polyacrylamide gel electrophoresis. Gels were electroblotted onto nitrocellulose membranes. Following 1 hr incubation in blocking solution (phosphate-buffered saline, 0.1% Tween-20, 2% fish gelatin, pH 7.5), membranes were incubated with primary (phospho-p38 and p38) and secondary horseradish peroxidase-conjugated antibodies as recommended by manufacturers. Membranes were then impregnated with luminol reagent and exposed to x-ray film.
(a) Rat intestinal epithelial cells (IEC-6) were pretreated with different doses of the drug (0.1-10 μM) for 1 hr. prior to stimulation with 5 μg/ml LPS for 10 min or (b) were pretreated with semapimod (5 μM) for 1 hr. prior to stimulation with 5 μg/ml LPS or ONOO^− (50 μM) for 10 min. The protein lysates were then collected and Western blotting analysis for phospho-p38 and p38 (loading control) was performed as described in Methods. (a) A representative blot for pp38/p38 and densitometric analysis showing the ratio of pp38/p38 band intensity. Ctrl are non-stimulated cells. Results in graph bars are the mean±S.E.M. (n=3 independent experiments, *P<0.05 vs. LPS treated cells without pretreatment with semapimod, analyzed by one-way ANOVA followed by Fisher's LSD Test).
The present inventors have previously shown that LPS causes rapid but transient activation of p38 MAP kinase as determined by increased phosphorylation of p38. […] The effect of semapimod on p38 activation by inflammatory mediators other than LPS was evaluated.

[2] = test system: endotoxin-induced TNF release and shock; conditions: adult male Lewis rats, icv. vs intravenous; cited from earlier work
[3] = 0.1-10 μM pretreatment 1 hr, then 5 μg/ml LPS 10 min, FIG. 6a

In the case of `C/C(=N\NC(=N)N)c1cc(NC(=O)CCCCCCCCC(=O)Nc2cc(/C(C)=N/NC(=N)N)cc(/C(C)=N/NC(=N)N)c2)cc(/C(C)=N/NC(=N)N)c1` [semapimod], the “severity of intestinal injury / morphology as assessed by histology” value ([1]; 0.75 mg/kg i.p., day 4, FIG. 3b, 0.75 mg/kg) is reported as “decrease in the severity of injury”, the “doses that prevented intestinal damage (reduction in the incidence of NEC)” value ([1]; semapimod 0.1-1 mg/kg i.p. daily, terminal ileum day 4, FIG. 2) is reported as “higher than 0.5 mg/kg” and the “HMGB1 protein expression in ileal mucosa” value (HMGB1) is reported as “reduced after administration of semapimod”. The “expression of RAGE in ileal mucosal scrapings” value (RAGE) was “expression of RAGE was reduced”, the “expression of Bad protein in mucosal scrapings” value (Bad) was “significantly decreased” and the “expression of Bax protein in mucosal scrapings” value (Bax) was “significantly decreased”. For the same compound, the “expression of COX-2 protein in terminal ileum” value (COX-2) was “significantly decreased”, the “expression of iNOS protein in terminal ileum” value (iNOS) was “significantly decreased” and the “phosphorylation of p38 induced by ONOO−” value (p38 MAP kinase; 5 μM semapimod pretreatment 1 hr, ONOO− 50 μM 10 min, FIG. 6b) was “not inhibited”. For the same compound, the “concentrations with maximal effect on LPS-induced phosphorylation of p38” value (p38 MAP kinase; [3]) was “higher than 1 μM”, the “phosphorylation of p38 induced by LPS” value (p38 MAP kinase; [3]) was “dose dependently inhibited” and the “p38 activation by a mixture of TNFα, IL-1β and IFN-γ” value (p38 MAP kinase; semapimod pretreatment, cytomix 10 min (not shown)) was “failed to inhibit”. For the same compound, the “effectiveness of icv. administration in suppressing endotoxin-induced TNF release and shock as compared with intravenous” value [2] was 100,000 fold.
